Blank lines part the entries; values can stand above or below the compound they belong to.
Key:
[1] = system: human breast adenocarcinoma MDA-MB-231 cell line; test: Cytotoxicity: cell growth inhibition in cultures, viable cells counted by trypan blue exclusion; assay type: cell-based; settings: for inhibition at 0.04 µM / inhibition at 1 µM / inhibition at 0.1 µM / inhibition at 0.01 µM / inhibition at 0.001 µM / inhibition at 0.0001 µM / inhibition at 10 pM: Homo sapiens; for Cell growth inhibition % Formulation: compound/paclitaxel formulations in saline; for Cell growth inhibition % OF W/SAB / Cell growth inhibition % OF SAB/W: dried compound/paclitaxel mixed-micellar system (OF); for Cell growth inhibition % OF W/SAB: freeze-dried as water solution, reconstituted with 0.05 M sodium acetate buffer; for Cell growth inhibition % OF SAB/W: freeze-dried in 0.05 M sodium acetate buffer, reconstituted with water
Method: The cell line was propagated by cultivation in Nunclon 25 cm^2 flasks (Nunc A/S, Denmark) in Minimum Essential Medium Eagle (MEM), containing antibiotics and supplemented with 10% (v/v) fetal bovine serum (FBS) (Sigma, St. Louis, Mo., USA). The cultures were maintained in growth medium at 37° C. in a humidified atmosphere, 95% air and 5% CO2.
A suspension of tumour cells (60×10^3 cells/mL) was prepared in MEM with 5% FBS and antibiotics. Cell suspension (200 μL) was seeded in wells of Nunclon 96-microwell plates (Nunc A/S, Denmark) at a density of 12×10^3 cell/well. The solutions of the drugs to be tested were added to the cultures on day 0 or day 1 in volumes of 2 μL. In all cases the cells were incubated for 3 days.
At the end of the incubation period, adherent cells were detached by trypsinization and the number of viable cells was counted using trypan blue dye exclusion test and a hemocytometer.
All experiments were performed at least twice and the cells counts were done in triplicate for each drug concentration. Each control and test series consisted of 6-8 cultures. The results are expressed as mean cell number ±SD and the differences between control and test series were evaluated by means of Student's t-test. The cytotoxicity of each tested drug was evaluated by the extent of cell growth inhibition. The Cell growth inhibition was evaluated as follows:
Cell growth inhibition, %=- - - ×100

[2] = Solubility of compounds and formulations; assay type: physicochemical; settings: for solubility in solvents: sodium salts
Method: The obtained solution can be stored for at least three months at low temperatures, without noticeable change in the properties of compound (I-VI). Moreover, the formulation retains its cytotoxic effects during prolonged storage. Before use, the solution is evaporated in vacuo to yield a waxy solid which is dissolved in saline or other commonly used vehicle for intravenous infusion to a patient. […] An ethanol solution is prepared of one of N-(all-trans-Retinoyl)-L-cysteic acid (I), N-(13-cis-Retinoyl)-L-cysteic acid (11), N-(all-trans-Retinoyl)-L-homocysteic acid (III), N-(13-cis-Retinoyl)-L-homocysteic acid (IV), N-(all-trans-Retinoyl)-L-cysteinesulfinic acid (V), or N-(13-cis-Retinoyl)-L-cysteinesulfinic acid (VI). The obtained solution is evaporated in vacuo to give waxy solid, whereupon Taxol® is added, dissolving the waxy solid. […]

[3] = MDA-MB-231, compound alone 4 × 10^−8 mol/L (40 nM), added day 0, three days
[4] = MDA-MB-231, dry substance, stock 1 mg/ml in saline, final 4 × 10^−8 mol/L, day 1, three days
[5] = MDA-MB-231, dry substance, stock 1 mg/ml in saline, final 10^−6 mol/L, day 1, three days
[6] = MDA-MB-231, dry substance, stock 1 mg/ml in saline, final 10^−7 mol/L, day 1, three days
[7] = MDA-MB-231, dry substance, stock 1 mg/ml in saline, final 10^−8 mol/L, day 1, three days
[8] = MDA-MB-231, dry substance, stock 1 mg/ml in saline, final 10^−9 mol/L, day 1, three days
[9] = MDA-MB-231, dry substance, stock 1 mg/ml in saline, final 10^−10 mol/L, day 1, three days
[10] = MDA-MB-231, dry substance, stock 1 mg/ml in saline, final concentration 10^−11 mol/L, day 1, three days
[11] = MDA-MB-231, sodium salt in saline, final 4 × 10^−8 mol/L, day 1, three days
[12] = MDA-MB-231, sodium salt in saline, final 10^−6 mol/L (top of range 10^−11 M to 10^−6 M), day 1, three days
[13] = MDA-MB-231, sodium salt in saline, final 10^−7 mol/L, day 1, three days
[14] = MDA-MB-231, sodium salt in saline, final 10^−8 mol/L, day 1, three days
[15] = MDA-MB-231, sodium salt in saline, final 10^−9 mol/L, day 1, three days
[16] = MDA-MB-231, sodium salt in saline, final 10^−10 mol/L, day 1, three days
[17] = MDA-MB-231, sodium salt of the compound dissolved in saline (1 mg/ml), final concentration 10^−11 mol/L, day 1, three days
[18] = compound alone 4 × 10^−8 mol/L (40 nM), added day 0, three days, 0.04 µM
[19] = compound alone 4 × 10^−8 mol/L, added day 0, three days
[20] = dry substance, stock 1 mg/ml in saline, final 4 × 10^−8 mol/L, day 1, three days
[21] = dry substance, stock 1 mg/ml in saline, final 10^−6 mol/L, day 1, three days
[22] = dry substance, stock 1 mg/ml in saline, final 10^−7 mol/L, day 1, three days
[23] = dry substance, stock 1 mg/ml in saline, final 10^−8 mol/L, day 1, three days
[24] = dry substance, stock 1 mg/ml in saline, final 10^−9 mol/L, day 1, three days
[25] = dry substance, stock 1 mg/ml in saline, final 10^−10 mol/L, day 1, three days
[26] = dry substance, stock 1 mg/ml in saline, final concentration 10^−11 mol/L, day 1, three days
[27] = initial saline solution 0.005 mg/mL, final 40 nM in cultures, added day 1, three days of cultivation
[28] = initial saline solution 0.05 mg/mL, final 40 nM, day 1, three days
[29] = initial saline solution 0.5 mg/mL, final 40 nM, day 1, three days
[30] = initial saline solution 1.0 mg/mL, final 40 nM, day 1, three days
[31] = initial saline solution 5.0 mg/mL, final 40 nM, day 1, three days
[32] = sodium salt in saline, final 4 × 10^−8 mol/L, day 1, three days
[33] = sodium salt in saline, final 10^−6 mol/L (top of range 10^−11 M to 10^−6 M), day 1, three days
[34] = sodium salt in saline, final 10^−6 mol/L, day 1, three days
[35] = sodium salt in saline, final 10^−7 mol/L, day 1, three days
[36] = sodium salt in saline, final 10^−8 mol/L, day 1, three days
[37] = sodium salt in saline, final 10^−9 mol/L, day 1, three days
[38] = sodium salt in saline, final 10^−10 mol/L, day 1, three days
[39] = sodium salt of the compound dissolved in saline (1 mg/ml), final concentration 10^−11 mol/L, day 1, three days

- solubility in the commercially available Taxol® preparation [2]: excellent solubility
SMILES: CC1=C(/C=C/C(C)=C/C=C/C(C)=C/C(=O)N[C@@H](CS(=O)(=O)O)C(=O)O)C(C)(C)CCC1 [Compound I, N-(all-trans-Retinoyl)-L-cysteic acid]
- inhibition at 0.04 µM [1, 3]: 39.6%
- inhibition at 0.04 µM [1, 4]: 38.1%
- inhibition at 1 µM [1, 5]: 42.1%
- inhibition at 0.1 µM [1, 6]: 39.1%
- inhibition at 0.01 µM [1, 7]: 29.9%
- inhibition at 0.001 µM [1, 8]: 19.8%
- inhibition at 0.0001 µM [1, 9]: 18.6%
- inhibition at 10 pM [1, 10]: 27.3%
- inhibition at 0.04 µM [1, 11]: 46.8%
- inhibition at 1 µM [1, 12]: 49.7%
- inhibition at 0.1 µM [1, 13]: 48%
- inhibition at 0.01 µM [1, 14]: 46.2%
- inhibition at 0.001 µM [1, 15]: 39.7%
- inhibition at 0.0001 µM [1, 16]: 36.5%
- inhibition at 10 pM [1, 17]: 28.6%
- cell growth inhibition [1, 18]: ~40%
- number of living cells [1, 19]: 16.3 ± 2.50 × 10^3
- Cell growth inhibition % Formulation [1]: close to 75%
- Cell growth inhibition % OF W/SAB [1]: close to 71%
- Cell growth inhibition % OF SAB/W [1]: close to 72%
- number of living cells [1, 20]: 30.9 ± 1.62 × 10^3
- number of living cells [1, 21]: 28.9 ± 2.68 × 10^3
- number of living cells [1, 22]: 30.4 ± 1.83 × 10^3
- number of living cells [1, 23]: 35.0 ± 4.38 × 10^3
- number of living cells [1, 24]: 40.0 ± 2.31 × 10^3
- number of living cells [1, 25]: 40.6 ± 1.69 × 10^3
- number of living cells [1, 26]: 36.3 ± 3.82 × 10^3
- cell growth inhibition [1, 27]: 33.3%
- number of living cells [1, 27]: 33.3 ± 2.55 × 10^3
- cell growth inhibition [1, 28]: 32.1%
- number of living cells [1, 28]: 33.9 ± 2.78 × 10^3
- cell growth inhibition [1, 29]: 31.5%
- number of living cells [1, 29]: 34.2 ± 5.09 × 10^3
- cell growth inhibition [1, 30]: 38.3%
- number of living cells [1, 30]: 30.8 ± 3.53 × 10^3
- cell growth inhibition [1, 31]: 27.7%
- number of living cells [1, 31]: 36.1 ± 4.10 × 10^3
- number of living cells [1, 32]: 31.2 ± 1.72 × 10^3
- cell growth inhibition [1, 33]: ~50%
- number of living cells [1, 34]: 29.5 ± 1.36 × 10^3
- number of living cells [1, 35]: 30.5 ± 0.89 × 10^3
- number of living cells [1, 36]: 31.6 ± 1.69 × 10^3
- number of living cells [1, 37]: 35.4 ± 2.23 × 10^3
- number of living cells [1, 38]: 37.3 ± 2.84 × 10^3
- number of living cells [1, 39]: 41.9 ± 2.17 × 10^3
- solubility in solvents [2]: soluble only in mixtures containing water

- solubility in the commercially available Taxol® preparation [2]: excellent solubility
SMILES: CC1=C(/C=C/C(C)=C/C=C/C(C)=C\C(=O)N[C@@H](CS(=O)(=O)O)C(=O)O)C(C)(C)CCC1 [Compound II, N-(13-cis-Retinoyl)-L-cysteic acid]
- inhibition at 0.04 µM [1, 3]: 35.3%
- inhibition at 0.04 µM [1, 4]: 36.8%
- inhibition at 1 µM [1, 5]: 41.9%
- inhibition at 0.1 µM [1, 6]: 38.4%
- inhibition at 0.01 µM [1, 7]: 27.5%
- inhibition at 0.001 µM [1, 8]: 21.5%
- inhibition at 0.0001 µM [1, 9]: 17.8%
- inhibition at 10 pM [1, 10]: 28.9%
- inhibition at 0.04 µM [1, 11]: 46.8%
- inhibition at 1 µM [1, 12]: 51.6%
- inhibition at 0.1 µM [1, 13]: 46%
- inhibition at 0.01 µM [1, 14]: 46.5%
- inhibition at 0.001 µM [1, 15]: 41.2%
- inhibition at 0.0001 µM [1, 16]: 35.1%
- inhibition at 10 pM [1, 17]: 27.9%
- cell growth inhibition [1, 18]: ~40%
- number of living cells [1, 19]: 29.9 ± 2.38 × 10^3
- Cell growth inhibition % Formulation [1]: close to 75%
- Cell growth inhibition % OF W/SAB [1]: close to 71%
- Cell growth inhibition % OF SAB/W [1]: close to 72%
- number of living cells [1, 20]: 32.6 ± 2.52 × 10^3
- number of living cells [1, 21]: 30.0 ± 2.14 × 10^3
- number of living cells [1, 22]: 31.8 ± 2.05 × 10^3
- number of living cells [1, 23]: 37.4 ± 3.86 × 10^3
- number of living cells [1, 24]: 40.5 ± 2.11 × 10^3
- number of living cells [1, 25]: 42.4 ± 1.93 × 10^3
- number of living cells [1, 26]: 36.7 ± 3.65 × 10^3
- cell growth inhibition [1, 27]: 32.6%
- number of living cells [1, 27]: 34.8 ± 3.27 × 10^3
- number of living cells [1, 28]: 33.4 ± 2.91 × 10^3
- cell growth inhibition [1, 29]: 35.9%
- number of living cells [1, 29]: 33.1 ± 3.01 × 10^3
- cell growth inhibition [1, 30]: 37.6%
- number of living cells [1, 30]: 32.2 ± 2.14 × 10^3
- cell growth inhibition [1, 31]: 29.3%
- number of living cells [1, 31]: 36.5 ± 3.88 × 10^3
- number of living cells [1, 32]: 31.2 ± 2.33 × 10^3
- cell growth inhibition [1, 33]: ~50%
- number of living cells [1, 34]: 28.4 ± 1.02 × 10^3
- number of living cells [1, 35]: 31.7 ± 1.54 × 10^3
- number of living cells [1, 36]: 31.4 ± 1.62 × 10^3
- number of living cells [1, 37]: 34.5 ± 1.94 × 10^3
- number of living cells [1, 38]: 38.1 ± 1.18 × 10^3
- number of living cells [1, 39]: 42.3 ± 2.32 × 10^3
- solubility in solvents [2]: soluble only in mixtures containing water
